The text below walks through data of patent US6288091A, “Antiherpes virus compounds and methods for their preparation and use” (Boehringer Ingelheim Ltd., priority 1999, dated 2001).

Experiment [1] has as its target T1, HSV-1 helicase-primase (Human herpesvirus 1, UniProt P10189+P10236).
T1 construct: made in house; host or cells: Sf21 insect cells triply infected with recombinant baculoviruses (UL5, UL8, UL52)
The experiment is described as follows: HSV-1 DNA-dependent ATPase assay (inhibition of HSV-1 helicase-primase). The format is biochemical. The essentials: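 ATP hydrolysis was measured as inorganic phosphate (malachite green/molybdate, 650 nm) after 20 min at 34°. Reaction: 3 μg/mL purified Sf21-expressed UL5/UL8/UL52 helicase-primase, 25 μM single-stranded M13 DNA hybridized to 68-mer, 4 mM ATP, pH 7.5 HEPES buffer, 3.3% DMSO. Net absorbance change with and without inhibitor gave DNA-dependent ATPase activity.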

For experiment [2], the system named is HSV-1 strain F or KOS. The experiment is described as follows: Inhibition of herpes simplex virus (HSV-1) replication in cell culture (BHK-21 cells, glycoprotein C ELISA). Type of experiment: cell-based. The procedure, abridged:
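Replication readout: ELISA for HSV-1 late glycoprotein C (mAb C11, peroxidase-OPD, 450 nm) on glutaraldehyde-fixed cells. Monolayers (~50,000 cells/well) were infected with strain F or KOS (MOI 0.05 PFU/cell), then incubated 24 h at 37° with compound in 2% FBS α-MEM. EC50 derived from % inhibition.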
In general terms: ELISA stands for enzyme-linked immunosorbent assay.

Experiment [3] deals with HCMV (strain AD169). The experiment is described as follows: Inhibition of HCMV replication, ELISA assay (Hs-68 cells). The format is cell-based, Human Cytomegalovirus (HCMV). Particulars: read-out: ELISA CMV EC50. As to the method:
C) Inhibition of Human Cytomegalovirus (HCMV) Replication
The effect of compounds on the replication of HCMV has been measured by using an ELISA-based assay (ELISA) and a plaque reduction assay (PRA).
Hs-68 cells (ATCC # CRL 1635) were seeded in 96 well microtiter plates at 10,000 cells/well in 100 μL of DMEM medium (Gibco Canada Inc.) supplemented with 10% fetal bovine serum (FBS, Gibco Canada Inc.). The plates were incubated for 3 days at 37° to allow the cells to reach 80-90% confluency prior to the assay.
The medium was removed from wells by aspiration. The cells then were infected at a multiplicity of infection (MOI) of 0.01 PFU/cell with 50 μL of HCMV (strain AD169, ATCC VR-538) in DMEM medium supplemented with 5% heat inactivated FBS (assay medium). The virus was allowed to adsorb to cells for 2 h at 37°. Following viral adsorption, the medium was removed from the wells by aspiration. The cells were washed twice with 200 μL of assay medium to remove unabsorbed virus. The cells were then incubated with or without 100 μL of appropriate concentrations of test reagent in assay medium. After 8 days of incubation at 37°, the extent of viral replication was determined by an ELISA assay which detects the late structural protein p28 of HCMV.
Eight days after infection, the medium was aspirated from the wells. Non-specific binding sites were blocked by adding 200 μL of phosphate buffered saline containing 1% (w/v) bovine serum albumin (blocking buffer) to each well and incubating the plates for 30 min at room temperature. After removal of the blocking buffer by aspiration, the cells were fixed with 100 μL of cold ethanol-acetone solution (95:5) per well. The plates were placed at -20° for 30 min. The plates were washed 4 times with phosphate buffered saline containing 0.05% (v/v) polyoxyethylene sorbitan monolaurate (Tween®). Thereafter, 100 μL of mAb UL99 (Advanced Biotechnologies Inc., #13-130-100) recognizing HCMV protein p28 was added to each wells and plates were incubated for 2 h at room temperature. The plates were washed four times with 200 μL of the above-noted phosphate buffered saline/Tween-20® solution. The cells were then incubated with 100 μL of sheep anti-mouse IgGγ horseradish peroxidase conjugated for 2 h at room temperature. The plates were then washed four times with 200 μL of above-noted phosphate buffered saline/Tween-20® solution. Thereafter, 100 μL of ortho phenylenediamine dihydrochloride (OPD, Gibco Canada Inc.) solution was added to each well and the plates were agitated on a microplate shaker for 30 min in the dark. Color development was monitored at 450 nm using a microplate spectrophotometer.
The SAS program was used to calculate the % inhibition of viral replication and to generate EC50 values.
The EC50 values obtained according to this assay method for certain thiazolylphenyl derivatives of this invention are listed in the following tables under the heading ELISA CMV.

The mark [4] stands for this setting: Human alphaherpesvirus 1, BHK-21, Group 1 Table 1 entries.
[5] abbreviates: Human betaherpesvirus 5, AD169, Hs68, Group 1 Table 1 entries.
The mark [6] stands for this setting: Human alphaherpesvirus 1, BHK-21, Group 1 Table 5 entries.
The mark [7] stands for this setting: Human betaherpesvirus 5, AD169, Hs68, Group 1 Table 5 entries.
Setting [8] is: Human alphaherpesvirus 1, BHK-21, Group 1 Table 3 entries.
The mark [9] stands for this setting: Human betaherpesvirus 5, AD169, Hs68, Group 1 Table 3 entries.

One may read the IC50 as the concentration that gives 50% inhibition. Higher therefore signals a need for much substance. What is called EC50 is the concentration that produces a half-maximal response.

The structures appear in SMILES notation. Read-outs that look alike come from different tables or passages of the source.

T1 sequence (P10192 whole entry): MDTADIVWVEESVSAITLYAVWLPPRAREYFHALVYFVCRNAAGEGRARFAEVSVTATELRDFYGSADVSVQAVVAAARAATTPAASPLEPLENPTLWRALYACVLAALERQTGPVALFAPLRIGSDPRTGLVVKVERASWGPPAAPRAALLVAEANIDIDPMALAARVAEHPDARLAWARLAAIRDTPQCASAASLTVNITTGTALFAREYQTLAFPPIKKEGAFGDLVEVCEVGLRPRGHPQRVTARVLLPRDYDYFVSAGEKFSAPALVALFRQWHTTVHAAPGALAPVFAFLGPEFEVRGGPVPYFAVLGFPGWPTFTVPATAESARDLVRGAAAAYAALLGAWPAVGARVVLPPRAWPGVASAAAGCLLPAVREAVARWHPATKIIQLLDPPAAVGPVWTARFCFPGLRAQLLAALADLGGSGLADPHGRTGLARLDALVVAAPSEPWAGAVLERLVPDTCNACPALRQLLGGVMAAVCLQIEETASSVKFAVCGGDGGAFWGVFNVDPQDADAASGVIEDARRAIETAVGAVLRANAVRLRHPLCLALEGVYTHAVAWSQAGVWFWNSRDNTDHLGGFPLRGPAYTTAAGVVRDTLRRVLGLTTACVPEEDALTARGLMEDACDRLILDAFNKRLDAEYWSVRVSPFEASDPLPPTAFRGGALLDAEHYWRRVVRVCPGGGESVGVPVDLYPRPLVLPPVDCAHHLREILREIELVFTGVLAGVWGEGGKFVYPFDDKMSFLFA
T1 sequence (P10236 whole entry): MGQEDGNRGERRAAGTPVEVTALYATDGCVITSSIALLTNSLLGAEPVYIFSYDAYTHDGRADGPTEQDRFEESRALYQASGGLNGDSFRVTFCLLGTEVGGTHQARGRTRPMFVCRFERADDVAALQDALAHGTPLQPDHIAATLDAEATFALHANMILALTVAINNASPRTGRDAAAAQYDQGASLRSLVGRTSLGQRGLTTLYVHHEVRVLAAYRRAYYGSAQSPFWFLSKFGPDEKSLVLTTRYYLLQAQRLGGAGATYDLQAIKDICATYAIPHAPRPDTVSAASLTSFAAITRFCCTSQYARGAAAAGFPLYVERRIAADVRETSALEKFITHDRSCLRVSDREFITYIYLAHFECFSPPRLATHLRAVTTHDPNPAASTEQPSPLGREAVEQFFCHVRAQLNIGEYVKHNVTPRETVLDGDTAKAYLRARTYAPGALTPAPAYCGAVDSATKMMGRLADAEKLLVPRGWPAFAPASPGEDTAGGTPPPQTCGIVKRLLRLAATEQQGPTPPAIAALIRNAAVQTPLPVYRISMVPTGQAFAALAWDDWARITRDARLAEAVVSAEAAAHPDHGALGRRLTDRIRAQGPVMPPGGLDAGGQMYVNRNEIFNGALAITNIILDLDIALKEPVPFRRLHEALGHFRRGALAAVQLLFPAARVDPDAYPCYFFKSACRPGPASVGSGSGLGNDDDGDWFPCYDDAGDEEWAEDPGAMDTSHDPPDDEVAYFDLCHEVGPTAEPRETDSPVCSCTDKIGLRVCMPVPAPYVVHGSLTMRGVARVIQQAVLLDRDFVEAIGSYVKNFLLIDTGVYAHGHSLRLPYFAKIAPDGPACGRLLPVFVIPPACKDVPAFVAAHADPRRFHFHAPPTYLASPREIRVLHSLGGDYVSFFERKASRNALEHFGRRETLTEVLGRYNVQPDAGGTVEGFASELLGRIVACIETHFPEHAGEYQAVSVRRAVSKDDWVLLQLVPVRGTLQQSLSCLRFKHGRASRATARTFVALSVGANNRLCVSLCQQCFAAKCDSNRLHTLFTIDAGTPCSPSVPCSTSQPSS
T1 sequence (P10189 whole entry): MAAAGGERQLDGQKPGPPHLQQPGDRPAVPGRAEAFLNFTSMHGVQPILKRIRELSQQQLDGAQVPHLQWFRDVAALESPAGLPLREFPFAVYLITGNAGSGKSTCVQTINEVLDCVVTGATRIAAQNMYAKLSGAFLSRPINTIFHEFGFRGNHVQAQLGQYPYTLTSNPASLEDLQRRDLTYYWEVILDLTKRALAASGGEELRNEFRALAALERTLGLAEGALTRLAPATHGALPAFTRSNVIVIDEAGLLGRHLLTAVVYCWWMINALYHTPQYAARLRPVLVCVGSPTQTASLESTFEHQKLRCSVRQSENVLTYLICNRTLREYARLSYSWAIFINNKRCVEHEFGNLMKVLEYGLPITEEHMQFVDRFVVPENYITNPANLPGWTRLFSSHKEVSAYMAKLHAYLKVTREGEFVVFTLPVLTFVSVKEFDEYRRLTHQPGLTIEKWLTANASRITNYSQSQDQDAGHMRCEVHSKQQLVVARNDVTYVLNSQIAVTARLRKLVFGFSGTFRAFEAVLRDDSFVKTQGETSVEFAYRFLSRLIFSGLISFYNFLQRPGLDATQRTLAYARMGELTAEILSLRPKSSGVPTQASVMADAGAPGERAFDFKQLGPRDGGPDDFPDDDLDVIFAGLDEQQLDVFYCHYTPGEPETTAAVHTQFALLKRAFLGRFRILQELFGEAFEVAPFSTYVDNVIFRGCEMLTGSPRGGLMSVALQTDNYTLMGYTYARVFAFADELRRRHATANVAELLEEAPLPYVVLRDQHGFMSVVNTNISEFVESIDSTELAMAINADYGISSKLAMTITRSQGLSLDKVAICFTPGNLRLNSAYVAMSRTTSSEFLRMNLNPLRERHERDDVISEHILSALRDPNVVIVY

In turn, `C[C@H](c1ccccc1)N(CC(=O)Nc1ccc(-c2csc(N)n2)cc1)C(=O)OC(C)(C)C` [Example 88] came in with an IC50 in experiment [1] (Group 1 Table 1 entries) of 2400 nM. Moreover, the EC50 in experiment [2] (setting [4]) was 1200 nM; in experiment [3] (setting [5]) it was above 47 µM.
The matching figures for `Nc1nc(-c2ccc(NC(=O)CN(Cc3ccccn3)C(=O)c3ccncc3)cc2)cs1` [Example 56]: 1200 nM, 550 nM and 38 µM.
In experiment [1] (Group 1 Table 5 entries), `CC(C)(C)C(=O)N[C@@H](Cc1ccccc1)C(=O)Nc1ccc(-c2csc(N)n2)cc1` [Example 20] returned a half-maximal inhibitory concentration (IC50) of 1300 nM. Besides, the EC50 in experiment [2] (setting [6]) turned out to be 600 nM; in experiment [3] (setting [7]), 10 µM.
In experiment [1] (Group 1 Table 5 entries), `CC(C)OC(=O)N[C@@H](Cc1ccccc1)C(=O)Nc1ccc(-c2csc(N)n2)cc1` [Example 22] displayed an IC50 of 830 nM. Further, the 50% effective concentration (EC50) was determined as 250 nM in experiment [2] (setting [6]) and 18 µM in experiment [3] (setting [7]).
Take `CC(C)CN(CC(=O)Nc1ccc(-c2csc(N)n2)cc1)C(=O)OC(C)(C)C` [Example 112]: the half-maximal effective concentration (EC50) was 1200 nM in experiment [2] (setting [4]) and 3.2 µM in experiment [3] (setting [5]).
In the case of `CC(=O)Nc1nc(-c2ccc(NC(=O)CN(Cc3ccccc3)C(=O)c3ccncc3)cc2)cs1` [Example 19], the IC50 in experiment [1] (Group 1 Table 3 entries) is above 50000 nM. The EC50 in experiment [2] (setting [8]) was 9000 nM; in experiment [3] (setting [9]), 28 µM.
`CN(C)c1nc(-c2ccc(NC(=O)CN(CC3CCCCC3)C(=O)OC(C)(C)C)cc2)cs1` [Example 17] registered a half-maximal inhibitory concentration (IC50) in experiment [1] (Group 1 Table 3 entries) above 50000 nM. In addition, the EC50 in experiment [2] (setting [8]) is above 8000 nM; in experiment [3] (setting [9]), 4 µM.
As to `Nc1nc(-c2ccc(NC(=O)[C@@H]3CCCN3Cc3ccccc3)cc2)cs1` [Example 7], the EC50 in experiment [2] (Human alphaherpesvirus 1, BHK-21, Group 1 Table 6 entries) was 1100 nM; in experiment [3] (Human betaherpesvirus 5, AD169, Hs68, Group 1 Table 6 entries), above 33 µM.
In experiment [1] (Group 1 Table 5 entries), `CC(C)(C)OC(=O)N[C@@H](Cc1cccnc1)C(=O)Nc1ccc(-c2csc(N)n2)cc1` [Example 26] returned an IC50 of 130 nM. The concentration for a half-maximal effect (EC50) in experiment [2] (setting [6]) was found to be 43 nM; in experiment [3] (setting [7]), 19.9 µM.
In experiment [1] (Group 1 Table 3 entries), `CNc1nc(-c2ccc(NC(=O)CN(Cc3ccccc3)C(=O)OC(C)(C)C)cc2)cs1` [Example 10] returned a half-maximal inhibitory concentration (IC50) of 310 nM. Moreover, the 50% effective concentration (EC50) in experiment [2] (setting [8]) is 8 nM; in experiment [3] (setting [9]), 1.1 µM.
On to `Nc1nc(-c2ccc(NC(=O)CN(Cc3ccccc3)C(=O)OCc3ccccc3)cc2)cs1` [Example 109], for which, in experiment [1] (Group 1 Table 1 entries), the half-inhibitory concentration (IC50) came out at 310 nM. Besides, the figures for the EC50 in experiment [2] (setting [4]) and in experiment [3] (setting [5]) were 200 nM and above 20 µM, respectively.
As to `Nc1nc(-c2ccc(NC(=O)CNCCc3ccccc3)cc2)cs1` [Example 2], the IC50 in experiment [1] (Group 1 Table 1 entries) was found to be 4700 nM. Moreover, the half-maximal effective concentration (EC50) was 6000 nM in experiment [2] (setting [4]) and 3.1 µM in experiment [3] (setting [5]).
`CN(C(=O)CN(Cc1ccccc1)C(=O)c1ccncc1)c1ccc(-c2csc(N)n2)cc1` [Example 2] registered an IC50 in experiment [1] (Group 1 Table 3 entries) of 1500 nM. Further, the 50% effective concentration (EC50) in experiment [2] (setting [8]) stood at 340 nM; in experiment [3] (setting [9]) it was 78 µM.
Consider `C[C@H](C(=O)Nc1ccc(-c2csc(N)n2)cc1)N(Cc1ccccc1)C(=O)OC(C)(C)C` [Example 17], for which, in experiment [1] (Group 1 Table 5 entries), half-maximal inhibition (IC50) was put at 110 nM. Besides, the concentration for a half-maximal effect (EC50) in experiment [2] (setting [6]) came to 55 nM; in experiment [3] (setting [7]), 7.6 µM.
`CC(C)(C)CN(CC(=O)Nc1ccc(-c2csc(N)n2)cc1)C(=O)OC(C)(C)C` [Example 142] gave an IC50 in experiment [1] (Group 1 Table 1 entries) of 6300 nM. Also, the concentration giving a half-maximal response (EC50) in experiment [2] (setting [4]) worked out at 2400 nM; in experiment [3] (setting [5]), 4 µM.
In experiment [1] (Group 1 Table 1 entries), `Nc1nc(CC(=O)N(CC(=O)Nc2ccc(-c3csc(N)n3)cc2)Cc2ccccc2)cs1` [Example 119] yielded an IC50 of 680 nM. Moreover, the half-maximal effective concentration (EC50) in experiment [3] (setting [5]) turned out to be 25 µM.
